From patent publication EP0094245A2, “Dihydronaphthyridine derivatives, their preparation and compositions containing them” (SANKYO COMPANY LIMITED, priority 1982, dated 1983)

Experiments:
Male Wistar rats [1] = assay: Pain test for analgesic activity (modified Randall-Selitto, Brewers' yeast inflamed paw); type: in vivo; settings: po; number of effective animals / total number of animals in group; 50 mg/kg orally; pain threshold 1 and 2 hours after administration; effective = at least twice mean pain threshold of controls
Protocol: Pain test for analgesic activity
This test was conducted according to a modification of the method reported by L.O. Randall and J.J. Selitto in Arch. Int. Pharmacodyn., 11, 409 (1959), proposed by Winter and Flatake (1957).
Male Wistar rats of 4 weeks of age and weighing 60-90 g were injected with 0.1 ml of a 20% by weight suspension of Brewers' yeast in the right hind paw. […] Each of these was given orally a test compound as an aqueous tragacanth suspension at a dose of 50 mg/kg. 1 and 2 hours after administration of the test compound, the pain threshold was determined by observing pain responses (such as struggling or squeaking) when the inflamed or normal paw was subjected to pressure by a machine (Ugo-Basile). […] The results are reported as the number of effective animals as a proportion of the total number of animals in each group.

Male Wistar rats [2] = assay: Carrageenin oedema test for anti-inflammatory activity; type: in vivo; settings: Rattus norvegicus, po, inhibitory rate, 100 mg/kg per os, paw volume 3 hours after carrageenin injection
Protocol: Details of certain of the pharmacological tests are as follows: • Carrageenin oedema test for anti-inflammatory activity
Male Wistar rats weighing 120-150 g were fasted overnight and then received a test compound per os as an aqueous tragacanth suspension. 30 minutes later, inflammation was induced by the subcutaneous injection of 0.05 ml of a 1% carrageenin suspension into the plantar tissue of a hind paw of each rat [Winter et al., Proc. Soc. Exp. Biol. Med., 111, 544 (1962)]. The anti-oedema activity was measured volumetrically, by assessing the response, as calculated from the following equation: [formula] where Vo and V represent, respectively, the paw volume immediately before and 3 hours after the carrageenin injection. The test compounds were administered at a dose of 100 mg/kg and the results are reported in the following Table as the inhibitory rate, that is the percentage inhibition of the […].

## COc1ccc2c(n1)C(C)=CC(C)(C)N2C(C)=O [Compound No. 27, 1-acetyl-6-methoxy-2,2,4-trimethyl-1,2-dihydro-1,5-naphthyridine]
Male Wistar rats [1]
  responders at 50 mg/kg: 20%
Male Wistar rats [2]
  inhibition in vivo at 100 mg/kg: 53.3%

## COc1ccc2c(n1)C(C)=CC(C)(C)N2 [Compound No. 1, 6-methoxy-2,2,4-trimethyl-1,2-dihydro-1,5-naphthyridine]
Male Wistar rats [1]
  responders at 50 mg/kg: 60%
Male Wistar rats [2]
  inhibition in vivo at 100 mg/kg: 62.6%

## CCCCOc1ccc2c(n1)C(C)=CC(C)(C)N2 [Compound No. 4, 6-butoxy-2,2,4-trimethyl-1,2-dihydro-1,5-naphthyridine]
Male Wistar rats [1]
  responders at 50 mg/kg: 60%
Male Wistar rats [2]
  inhibition in vivo at 100 mg/kg: 65.4%

## CC1=CC(C)(C)Nc2ccc(Oc3ccccc3)nc21 [Compound No. 5, 2,2,4-trimethyl-b-phenoxy-1,2-dihydro-1,5-naphthyridine]
Male Wistar rats [1]
  responders at 50 mg/kg: 60%
Male Wistar rats [2]
  inhibition in vivo at 100 mg/kg: 53.6%

## CC1=CC(C)(C)Nc2ccc(Oc3cccnc3)nc21 [compound 18, 2,2,4-trimethyl-6-(3-pyridyloxy)-1,2-dihydro-1,5-naphthyridine]
Male Wistar rats [1]
  responders at 50 mg/kg: 80%
Male Wistar rats [2]
  inhibition in vivo at 100 mg/kg: 76%

## CCOc1ccc2c(n1)C(C)=CC(C)(C)N2 [Compound No. 2, 6-ethoxy-2,2,4-trimethyl-1,2-dihydro-1,5-naphthyridine]
Male Wistar rats [1]
  responders at 50 mg/kg: 20%
Male Wistar rats [2]
  inhibition in vivo at 100 mg/kg: 58.2%

## CC1=CC(C)(C)Nc2ccc(Cl)nc21 [Compound No. 13, 6-chloro-2,2,4-trimethyl-1,2-dihydro-1,5-naphthyridine]
Male Wistar rats [1]
  responders at 50 mg/kg: 60%
Male Wistar rats [2]
  inhibition in vivo at 100 mg/kg: 56.6%

## COc1ccc2c(n1)C(C)=CC(C)(C)N2C [Compound No. 25, 6-methoxy-1,2,2,4-tetramethyl-1,2-dihydro-1,5-naphthyridine]
Male Wistar rats [1]
  responders at 50 mg/kg: 40%
Male Wistar rats [2]
  inhibition in vivo at 100 mg/kg: 54.8%
